Data: ChEMBL document CHEMBL4308841, “Synthesis, in vitro antiproliferative activity, and kinase inhibitory effects of pyrazole-containing diarylureas and diarylamides” (Eur J Med Chem, 2018)

Test system: IGROV-1
Assay: Growth inhibition of human IGROV1 cells incubated for 48 hrs by sulforhodamine B assay
Assay type: functional, cell-based
Conditions: IGROV-1, 48 h, read-out: pLC50 (the source's name) (converted)

SMILES	CC50 [µM]
COc1cc(Cl)cc(-c2nn(-c3cccc(NC(=O)Nc4cccc(C(F)(F)F)c4)c3)cc2-c2ccncc2)c1	> 100

Same assay, conditions: IGROV-1, 48 h, read-out: pTGI (converted)

SMILES	TGI [µM]
COc1cc(Cl)cc(-c2nn(-c3cccc(NC(=O)Nc4cccc(C(F)(F)F)c4)c3)cc2-c2ccncc2)c1	22.9

Test system: ACHN
Assay: Growth inhibition of human ACHN cells incubated for 48 hrs by sulforhodamine B assay
Assay type: functional, cell-based
Conditions: read-out: GI50

SMILES	GI50 [µM]
COc1cc(Cl)cc(-c2nn(-c3cccc(NC(=O)Nc4cccc(C(F)(F)F)c4)c3)cc2-c2ccncc2)c1	1.72

Same assay, conditions: read-out: LC50 (the source's name)

SMILES	CC50 [µM]
COc1cc(Cl)cc(-c2nn(-c3cccc(NC(=O)Nc4cccc(C(F)(F)F)c4)c3)cc2-c2ccncc2)c1	> 100

Same assay, conditions: read-out: TGI

SMILES	TGI [µM]
COc1cc(Cl)cc(-c2nn(-c3cccc(NC(=O)Nc4cccc(C(F)(F)F)c4)c3)cc2-c2ccncc2)c1	15.2

Same assay, conditions: read-out: pGI50 (converted)

SMILES	GI50 [µM]
COc1cc(Cl)cc(-c2nn(-c3cccc(NC(=O)Nc4cccc(C(F)(F)F)c4)c3)cc2-c2ccncc2)c1	1.7

Same assay, conditions: read-out: pLC50 (the source's name) (converted)

SMILES	CC50 [µM]
COc1cc(Cl)cc(-c2nn(-c3cccc(NC(=O)Nc4cccc(C(F)(F)F)c4)c3)cc2-c2ccncc2)c1	> 100

Same assay, conditions: read-out: pTGI (converted)

SMILES	TGI [µM]
COc1cc(Cl)cc(-c2nn(-c3cccc(NC(=O)Nc4cccc(C(F)(F)F)c4)c3)cc2-c2ccncc2)c1	16.2

Test system: CAKI-1
Assay: Growth inhibition of human Caki1 cells incubated for 48 hrs by sulforhodamine B assay
Assay type: functional, cell-based
Conditions: CAKI-1, 48 h, read-out: GI50

SMILES	GI50 [µM]
COc1cc(Cl)cc(-c2nn(-c3cccc(NC(=O)Nc4cccc(C(F)(F)F)c4)c3)cc2-c2ccncc2)c1	1.29

Same assay, conditions: CAKI-1, 48 h, read-out: LC50 (the source's name)

SMILES	CC50 [µM]
COc1cc(Cl)cc(-c2nn(-c3cccc(NC(=O)Nc4cccc(C(F)(F)F)c4)c3)cc2-c2ccncc2)c1	> 100

Same assay, conditions: CAKI-1, 48 h, read-out: TGI

SMILES	TGI [µM]
COc1cc(Cl)cc(-c2nn(-c3cccc(NC(=O)Nc4cccc(C(F)(F)F)c4)c3)cc2-c2ccncc2)c1	52

Same assay, conditions: CAKI-1, 48 h, read-out: pGI50 (converted)

SMILES	GI50 [µM]
COc1cc(Cl)cc(-c2nn(-c3cccc(NC(=O)Nc4cccc(C(F)(F)F)c4)c3)cc2-c2ccncc2)c1	1.29

Same assay, conditions: CAKI-1, 48 h, read-out: pLC50 (the source's name) (converted)

SMILES	CC50 [µM]
COc1cc(Cl)cc(-c2nn(-c3cccc(NC(=O)Nc4cccc(C(F)(F)F)c4)c3)cc2-c2ccncc2)c1	> 100

Same assay, conditions: CAKI-1, 48 h, read-out: pTGI (converted)

SMILES	TGI [µM]
COc1cc(Cl)cc(-c2nn(-c3cccc(NC(=O)Nc4cccc(C(F)(F)F)c4)c3)cc2-c2ccncc2)c1	8.91

Test system: HOP-62
Assay: Growth inhibition of human HOP62 cells assessed as cell growth at 0.01 uM incubated for 48 hrs by sulforhodamine B assay relative to control
Assay type: functional
Conditions: HOP-62, 48 h, read-out: Activity

SMILES	growth at 0.01 µM [%]
COc1cc(Cl)cc(-c2nn(-c3cccc(NC(=O)Nc4cccc(C(F)(F)F)c4)c3)cc2-c2ccncc2)c1	96

Test system: SNB-19
Assay: Growth inhibition of human SNB19 cells assessed as cell growth at 0.01 uM incubated for 48 hrs by sulforhodamine B assay relative to control
Assay type: functional
Conditions: SNB-19, 48 h, read-out: Activity

SMILES	growth at 0.01 µM [%]
COc1cc(Cl)cc(-c2nn(-c3cccc(NC(=O)Nc4cccc(C(F)(F)F)c4)c3)cc2-c2ccncc2)c1	98

Test system: U-251
Assay: Growth inhibition of human U251 cells assessed as cell growth at 0.01 uM incubated for 48 hrs by sulforhodamine B assay relative to control
Assay type: functional
Conditions: U-251, 48 h, read-out: Activity

SMILES	growth at 0.01 µM [%]
COc1cc(Cl)cc(-c2nn(-c3cccc(NC(=O)Nc4cccc(C(F)(F)F)c4)c3)cc2-c2ccncc2)c1	95

Test system: MDA-MB-231
Assay: Growth inhibition of human MDA-MB-231 cells assessed as cell growth at 0.01 uM incubated for 48 hrs by sulforhodamine B assay relative to control
Assay type: functional
Conditions: MDA-MB-231, 48 h, read-out: Activity

SMILES	growth at 0.01 µM [%]
COc1cc(Cl)cc(-c2nn(-c3cccc(NC(=O)Nc4cccc(C(F)(F)F)c4)c3)cc2-c2ccncc2)c1	102

Test system: HCC 2998
Assay: Growth inhibition of human HCC2998 cells assessed as cell growth at 0.1 uM incubated for 48 hrs by sulforhodamine B assay relative to control
Assay type: functional
Conditions: HCC 2998, 48 h, read-out: Activity

SMILES	growth at 0.1 µM [%]
COc1cc(Cl)cc(-c2nn(-c3cccc(NC(=O)Nc4cccc(C(F)(F)F)c4)c3)cc2-c2ccncc2)c1	98

Test system: OVCAR-5
Assay: Growth inhibition of human OVCAR5 cells assessed as cell growth at 0.1 uM incubated for 48 hrs by sulforhodamine B assay relative to control
Assay type: functional
Conditions: OVCAR-5, 48 h, read-out: Activity

SMILES	growth at 0.1 µM [%]
COc1cc(Cl)cc(-c2nn(-c3cccc(NC(=O)Nc4cccc(C(F)(F)F)c4)c3)cc2-c2ccncc2)c1	54

Test system: MDA-MB-231
Assay: Growth inhibition of human MDA-MB-231 cells assessed as cell growth at 0.1 uM incubated for 48 hrs by sulforhodamine B assay relative to control
Assay type: functional
Conditions: MDA-MB-231, 48 h, read-out: Activity

SMILES	growth at 0.1 µM [%]
COc1cc(Cl)cc(-c2nn(-c3cccc(NC(=O)Nc4cccc(C(F)(F)F)c4)c3)cc2-c2ccncc2)c1	103

Test system: K562
Assay: Growth inhibition of human K562 cells assessed as cell growth at 1 uM incubated for 48 hrs by sulforhodamine B assay relative to control
Assay type: functional
Conditions: K562, 48 h, read-out: Activity

SMILES	growth at 1 µM [%]
COc1cc(Cl)cc(-c2nn(-c3cccc(NC(=O)Nc4cccc(C(F)(F)F)c4)c3)cc2-c2ccncc2)c1	45

Test system: NCI-H23
Assay: Growth inhibition of human NCI-H23 cells assessed as cell growth at 1 uM incubated for 48 hrs by sulforhodamine B assay relative to control
Assay type: functional
Conditions: NCI-H23, 48 h, read-out: Activity

SMILES	growth at 1 µM [%]
COc1cc(Cl)cc(-c2nn(-c3cccc(NC(=O)Nc4cccc(C(F)(F)F)c4)c3)cc2-c2ccncc2)c1	71

Test system: HT-29
Assay: Growth inhibition of human HT-29 cells assessed as cell growth at 1 uM incubated for 48 hrs by sulforhodamine B assay relative to control
Assay type: functional
Conditions: HT-29, 48 h, read-out: Activity

SMILES	growth at 1 µM [%]
COc1cc(Cl)cc(-c2nn(-c3cccc(NC(=O)Nc4cccc(C(F)(F)F)c4)c3)cc2-c2ccncc2)c1	65

Test system: SF-539
Assay: Growth inhibition of human SF539 cells assessed as cell growth at 1 uM incubated for 48 hrs by sulforhodamine B assay relative to control
Assay type: functional
Conditions: SF-539, 48 h, read-out: Activity

SMILES	growth at 1 µM [%]
COc1cc(Cl)cc(-c2nn(-c3cccc(NC(=O)Nc4cccc(C(F)(F)F)c4)c3)cc2-c2ccncc2)c1	84

Test system: Malme-3M
Assay: Growth inhibition of human MALME-3M cells assessed as cell growth at 1 uM incubated for 48 hrs by sulforhodamine B assay relative to control
Assay type: functional
Conditions: read-out: Activity

SMILES	growth at 1 µM [%]
COc1cc(Cl)cc(-c2nn(-c3cccc(NC(=O)Nc4cccc(C(F)(F)F)c4)c3)cc2-c2ccncc2)c1	75

Test system: UACC-257
Assay: Growth inhibition of human UACC257 cells assessed as cell growth at 1 uM incubated for 48 hrs by sulforhodamine B assay relative to control
Assay type: functional
Conditions: UACC-257, 48 h, read-out: Activity

SMILES	growth at 1 µM [%]
COc1cc(Cl)cc(-c2nn(-c3cccc(NC(=O)Nc4cccc(C(F)(F)F)c4)c3)cc2-c2ccncc2)c1	78

Test system: HL-60(TB)
Assay: Growth inhibition of human HL-60(TB) cells assessed as cell growth at 100 uM incubated for 48 hrs by sulforhodamine B assay relative to control
Assay type: functional
Conditions: HL-60, 48 h, read-out: Activity

SMILES	growth at 100 µM [%]
COc1cc(Cl)cc(-c2nn(-c3cccc(NC(=O)Nc4cccc(C(F)(F)F)c4)c3)cc2-c2ccncc2)c1	-28

Test system: MOLT-4
Assay: Growth inhibition of human MOLT4 cells assessed as cell growth at 100 uM incubated for 48 hrs by sulforhodamine B assay relative to control
Assay type: functional
Conditions: MOLT-4, 48 h, read-out: Activity

SMILES	growth at 100 µM [%]
COc1cc(Cl)cc(-c2nn(-c3cccc(NC(=O)Nc4cccc(C(F)(F)F)c4)c3)cc2-c2ccncc2)c1	-36

Test system: SR
Assay: Growth inhibition of human SR cells assessed as cell growth at 100 uM incubated for 48 hrs by sulforhodamine B assay relative to control
Assay type: functional
Conditions: read-out: Activity

SMILES	growth at 100 µM [%]
COc1cc(Cl)cc(-c2nn(-c3cccc(NC(=O)Nc4cccc(C(F)(F)F)c4)c3)cc2-c2ccncc2)c1	-30

Test system: HOP-62
Assay: Growth inhibition of human HOP62 cells assessed as cell growth at 100 uM incubated for 48 hrs by sulforhodamine B assay relative to control
Assay type: functional
Conditions: HOP-62, 48 h, read-out: Activity

SMILES	growth at 100 µM [%]
COc1cc(Cl)cc(-c2nn(-c3cccc(NC(=O)Nc4cccc(C(F)(F)F)c4)c3)cc2-c2ccncc2)c1	-41

Test system: SF-295
Assay: Growth inhibition of human SF295 cells assessed as cell growth at 100 uM incubated for 48 hrs by sulforhodamine B assay relative to control
Assay type: functional
Conditions: SF-295, 48 h, read-out: Activity

SMILES	growth at 100 µM [%]
COc1cc(Cl)cc(-c2nn(-c3cccc(NC(=O)Nc4cccc(C(F)(F)F)c4)c3)cc2-c2ccncc2)c1	-53

Test system: MDA-MB-435
Assay: Growth inhibition of human MDA-MB-435 cells assessed as cell growth at 100 uM incubated for 48 hrs by sulforhodamine B assay relative to control
Assay type: functional
Conditions: MDA-MB-435, 48 h, read-out: Activity

SMILES	growth at 100 µM [%]
COc1cc(Cl)cc(-c2nn(-c3cccc(NC(=O)Nc4cccc(C(F)(F)F)c4)c3)cc2-c2ccncc2)c1	-74

Test system: OVCAR-8
Assay: Growth inhibition of human OVCAR8 cells assessed as cell growth at 100 uM incubated for 48 hrs by sulforhodamine B assay relative to control
Assay type: functional
Conditions: OVCAR-8, 48 h, read-out: Activity

SMILES	growth at 100 µM [%]
COc1cc(Cl)cc(-c2nn(-c3cccc(NC(=O)Nc4cccc(C(F)(F)F)c4)c3)cc2-c2ccncc2)c1	-43
